# Like-named read-outs stand apart in the source and are kept apart here.
# Biological target: T1, Chk1 (Homo sapiens, UniProt O14757)
# T1 construct: purchased Upstate Biotechnology
# T1 sequence (O14757 1-476): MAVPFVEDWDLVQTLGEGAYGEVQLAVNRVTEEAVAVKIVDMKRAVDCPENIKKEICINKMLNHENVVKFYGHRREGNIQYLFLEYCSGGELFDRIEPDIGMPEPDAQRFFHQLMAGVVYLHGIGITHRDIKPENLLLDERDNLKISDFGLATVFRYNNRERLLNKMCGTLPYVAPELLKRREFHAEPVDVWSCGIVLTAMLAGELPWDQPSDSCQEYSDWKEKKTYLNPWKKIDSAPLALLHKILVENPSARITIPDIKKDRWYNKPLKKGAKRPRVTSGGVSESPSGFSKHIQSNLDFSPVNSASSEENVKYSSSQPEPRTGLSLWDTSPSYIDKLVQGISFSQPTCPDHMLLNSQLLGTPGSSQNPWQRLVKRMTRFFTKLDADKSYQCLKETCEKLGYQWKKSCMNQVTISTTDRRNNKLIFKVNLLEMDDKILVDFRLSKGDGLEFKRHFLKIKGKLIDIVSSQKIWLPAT
# Experiment: Chk1 kinase assay: incorporation of γ-33P ATP into immobilized myelin basic protein
# Format: biochemical
# Settings: read-out: Chk1 IC50
# Procedure, shortened: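 MBP coated on plates (20 μg/ml) was phosphorylated by Chk1 (10 nM) or Chk2 (20 nM) with γ-33P ATP plus 10 μM (Chk1) or 30 μM (Chk2) unlabeled ATP, 1 h at room temperature, 1% DMSO. Bound radioactivity was counted by scintillation after washing; IC50 or Ki derived from fitted rate data.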
# [1] = Table 11, Chk1 only, class symbols A-D
Structure (SMILES),"IC50 (Table 11, Chk1 only)",IC50,further results
"Nc1ncc(-c2cccc(C(=O)NCc3ccc(-n4cccn4)cc3)c2)nc1C(=O)N[C@H]1CCCNC1 [Example 1033, 3-amino-N-[(3S)-piperidin-3-yl]-6-{3-[({[4-(1H-pyrazol-1-yl)phenyl]methyl}amino)carbonyl]phenyl}pyrazine-2-carboxamide]",–,–,IC50 [1]: < 50 nM
"Nc1ncc(-c2cccc(CNC(=O)c3csc(-c4cccs4)n3)c2)nc1C(=O)N[C@H]1CCCNC1 [Example 948, 3-amino-N-[(3S)-piperidin-3-yl]-6-{3-[({[2-(2-thienyl)-1,3-thiazol-4-yl]carbonyl}amino)methyl]phenyl}pyrazine-2-carboxamide]",–,–,IC50 [1]: < 50 nM
"CC(C)(C)OC(=O)NCCNC(=O)c1nc(-c2cccc(C(=O)NCc3ccccc3)c2)cnc1N [Example 615, 1,1-dimethylethyl [2-({[3-amino-6-(3-{[(phenylmethyl)amino]carbonyl}phenyl)pyrazin-2-yl]carbonyl}amino)ethyl]carbamate]",≥ 10000 nM,–,–
"CS(=O)(=O)c1ccc(CNC(=O)c2cccc(-c3cnc(N)c(C(=O)N[C@H]4CCCNC4)n3)c2)cc1 [Example 859, 3-amino-6-{3-[({[4-(methylsulfonyl)phenyl]methyl}amino)carbonyl]phenyl}-N-[(3S)-piperidin-3-yl]pyrazine-2-carboxamide]",–,–,IC50 [1]: < 50 nM
"COc1cccc(-c2nnc(-c3nc(-c4cccc(CO)c4)cnc3N)[nH]2)c1 [Example 571, [3-(5-amino-6-{5-[3-(methyloxy)phenyl]-4H-1,2,4-triazol-3-yl}pyrazin-2-yl)phenyl]methanol]",≥ 10000 nM,–,–
"CSc1ccccc1NC(=O)NCc1cccc(-c2cnc(N)c(C(=O)N[C@H]3CCCNC3)n2)c1 [Example 920, 3-amino-6-(3-{[({[2-(methylthio)phenyl]amino}carbonyl)amino]methyl}phenyl)-N-[(3S)-piperidin-3-yl]pyrazine-2-carboxamide]",–,–,IC50 [1]: < 50 nM
"Nc1ncc(-c2cccc(CNC(=O)Nc3ccc(F)cc3F)c2)nc1C(=O)N[C@H]1CCCNC1 [Example 914, 3-amino-6-{3-[({[(2,4-difluorophenyl)amino]carbonyl}amino)methyl]phenyl}-N-[(3S)-piperidin-3-yl]pyrazine-2-carboxamide]",–,–,IC50 [1]: < 50 nM
"CNC(=O)c1nc(-c2cccc(C(=O)NCCc3cc(OC)cc(OC)c3)c2)cnc1N [Example 173, 3-amino-6-{3-[({2-[3,5-bis(methyloxy)phenyl]ethyl}amino)carbonyl]phenyl}-N-methylpyrazine-2-carboxamide]",–,1000 to 10000 nM,–
"Nc1ncc(-c2cccc(C(=O)N[C@H]3CCCN3)c2)nc1C(=O)N[C@H]1CCCNC1 [Example 928, 3-amino-N-[(3S)-piperidin-3-yl]-6-(3-{[(2S)-pyrrolidin-2-ylamino]carbonyl}phenyl)pyrazine-2-carboxamide]",–,–,IC50 [1]: < 50 nM
"Nc1ncc(-c2cccc(C(=O)NCc3cc(F)c(F)c(F)c3)c2)nc1C(=O)N[C@H]1CCNC1 [Example 814, 3-amino-N-[(3S)-pyrrolidin-3-yl]-6-[3-({[(3,4,5-trifluorophenyl)methyl]amino}carbonyl)phenyl]pyrazine-2-carboxamide]",–,–,IC50 [1]: < 50 nM
"CNC(=O)c1nc(-c2cccc(C(=O)NCc3ccccc3OC)c2)cnc1N [Example 325, 3-amino-N-methyl-6-{3-[({[2-(methyloxy)phenyl]methyl}amino)carbonyl]phenyl}pyrazine-2-carboxamide]",–,50 to 1000 nM,–
"CNC(=O)c1nc(-c2cccc(C(=O)NCC3CCCO3)c2)cnc1N (centres unmarked) [Example 170, 3-amino-N-methyl-6-(3-{[(tetrahydrofuran-2-ylmethyl)amino]carbonyl}phenyl)pyrazine-2-carboxamide]",–,1000 to 10000 nM,–
"CNC(=O)c1nc(-c2cccc(C(=O)NCc3ccc(C)c(F)c3)c2)cnc1N [Example 295, 3-amino-6-[3-({[(3-fluoro-4-methylphenyl)methyl]amino}carbonyl)phenyl]-N-methylpyrazine-2-carboxamide]",–,50 to 1000 nM,–
"Nc1ncc(-c2cccc(C(=O)NCc3ccccc3)c2)nc1C(=O)NCCCNS(=O)(=O)c1cccc2cccnc12 [Example 653, 3-amino-6-(3-{[(phenylmethyl)amino]carbonyl}phenyl)-N-{3-[(quinolin-8-ylsulfonyl)amino]propyl}pyrazine-2-carboxamide]",≥ 10000 nM,–,–
"CNC(=O)c1nc(-c2cccc(CNCc3cccc(-c4csnn4)c3)c2)cnc1N [Example 423, 3-amino-N-methyl-6-{3-[({[3-(1,2,3-thiadiazol-4-yl)phenyl]methyl}amino)methyl]phenyl}pyrazine-2-carboxamide]",–,50 to 1000 nM,–
"Nc1ncc(-c2cccc(C(=O)NCc3cc(F)cc(F)c3F)c2)nc1C(=O)N[C@H]1CCNC1 [Example 816, 3-amino-N-[(3S)-pyrrolidin-3-yl]-6-[3-({[(2,3,5-trifluorophenyl)methyl]amino}carbonyl)phenyl]pyrazine-2-carboxamide]",–,–,IC50 [1]: 50 to 1000 nM
"Nc1ncc(-c2cccc(C(=O)NCc3cc(Cl)ccc3Cl)c2)nc1-c1nc([C@H]2CCCNC2)n[nH]1 [Example 829, 3-(5-amino-6-{3-[(3S)-piperidin-3-yl]-1H-1,2,4-triazol-5-yl}pyrazin-2-yl)-N-[(2,5-dichlorophenyl)methyl]benzamide]",–,–,IC50 [1]: 50 to 1000 nM
"CNC(=O)c1nc(-c2cccc(CS(=O)(=O)Cc3ccccc3)c2)cnc1N [Example 313, 3-amino-N-methyl-6-(3-{[(phenylmethyl)sulfonyl]methyl}phenyl)pyrazine-2-carboxamide]",–,50 to 1000 nM,–
"CNC(=O)c1nc(-c2cccc(C(=O)NNc3cc(F)ccc3F)c2)cnc1N [Example 430, 3-amino-6-(3-{[2-(2,5-difluorophenyl)hydrazino]carbonyl}phenyl)-N-methylpyrazine-2-carboxamide]",50 to 1000 nM,–,–
"CNC(=O)c1nc(-c2cccc(CNCc3ccc(N)cc3)c2)cnc1N [Example 396, 3-amino-6-[3-({[(4-aminophenyl)methyl]amino}methyl)phenyl]-N-methylpyrazine-2-carboxamide]",–,50 to 1000 nM,–

# Continued, in another order:
"IC50 (Table 11, Chk1 only)",IC50,Structure (SMILES),further results
1000 to 10000 nM,–,"C/C(=N\Nc1ccc(C(=O)O)cc1)c1nc(-c2cccc(C(=O)NCc3ccccc3)c2)cnc1N [Example 627, 4-((2E)-2-{1-[3-amino-6-(3-{[(phenylmethyl)amino]carbonyl}phenyl)pyrazin-2-yl]ethylidene}hydrazino)benzoic acid]",–
1000 to 10000 nM,–,"Nc1ncc(-c2cccc(C(=O)NCc3ccccc3)c2)nc1C(=O)NCCCNC(=O)c1ccncc1 [Example 650, 3-amino-6-(3-{[(phenylmethyl)amino]carbonyl}phenyl)-N-{3-[(pyridin-4-ylcarbonyl)amino]propyl}pyrazine-2-carboxamide]",–
–,1000 to 10000 nM,"CNC(=O)c1nc(-c2cccc(C(=O)N3Cc4ccccc4C3)c2)cnc1N [Example 143, 3-amino-6-[3-(1,3-dihydro-2H-isoindol-2-ylcarbonyl)phenyl]-N-methylpyrazine-2-carboxamide]",–
50 to 1000 nM,–,"NC(=O)c1nc(-c2cccc(C(=O)NCc3ccccc3)c2)cnc1N [Example 667, 3-amino-6-(3-{[(phenylmethyl)amino]carbonyl}phenyl)pyrazine-2-carboxamide]",–
1000 to 10000 nM,–,"N=C(NNc1ccncc1)c1nc(-c2cccc(C(=O)N[C@@H]3CCc4ccccc43)c2)cnc1N [Example 748, 3-{5-amino-6-[imino(2-pyridin-4-ylhydrazino)methyl]pyrazin-2-yl}-N-[(1R)-2,3-dihydro-1H-inden-1-yl]benzamide]",–
< 50 nM,–,"Nc1ncc(-c2cccc(C(=O)N[C@H]3CCc4ccccc43)c2)nc1C(=O)N[C@@H]1CCCNC1 [Example 765, 3-amino-6-(3-{[(1S)-2,3-dihydro-1H-inden-1-ylamino]carbonyl}phenyl)-N-[(3R)-piperidin-3-yl]pyrazine-2-carboxamide]",–
50 to 1000 nM,–,"CNC(=O)c1nc(-c2cccc(CNC3CCc4cc(-c5ccc(C)cc5)ccc43)c2)cnc1N (centres unmarked) [Example 510, 3-amino-N-methyl-6-[3-({[5-(4-methylphenyl)-2,3-dihydro-1H-inden-1-yl]amino}methyl)phenyl]pyrazine-2-carboxamide]",–
1000 to 10000 nM,–,"Nc1ncc(-c2cccc(CN[C@H]3CCc4ccccc43)c2)nc1C(=O)NCCCCCO [Example 538, 3-amino-6-(3-{[(1S)-2,3-dihydro-1H-inden-1-ylamino]methyl}phenyl)-N-(5-hydroxypentyl)pyrazine-2-carboxamide]",–
–,50 to 1000 nM,"CNC(=O)c1nc(-c2cccc(C(=O)NCc3ccccc3)c2)cnc1N [Example 84, 3-amino-N-methyl-6-(3-{[(phenylmethyl)amino]carbonyl}phenyl)pyrazine-2-carboxamide]",–
≥ 10000 nM,–,"Nc1ncc(-c2cccc(C(=O)NCc3ccccc3)c2)nc1C(=O)c1cccc(F)c1 [Example 560, 3-{5-amino-6-[(3-fluorophenyl)carbonyl]pyrazin-2-yl}-N-(phenylmethyl)benzamide]",–
–,50 to 1000 nM,"CNC(=O)c1nc(-c2cccc(C(=O)NCc3ccc(-c4cccnc4)cc3)c2)cnc1N [Example 414, 3-amino-N-methyl-6-[3-({[(4-pyridin-3-ylphenyl)methyl]amino}carbonyl)phenyl]pyrazine-2-carboxamide]",–
≥ 10000 nM,–,"Nc1ncc(-c2cccc(C(=O)NCc3ccccc3)c2)nc1C(=O)c1cc(F)cc(F)c1 [Example 578, 3-{5-amino-6-[(3,5-difluorophenyl)carbonyl]pyrazin-2-yl}-N-(phenylmethyl)benzamide]",–

# Source: patent publication US7704995B2 (Exelixis, Inc., priority 2003, dated 2010)
